Data on four molecules can be found in patent US6660496B1 (priority 1993, dated 2003).

One data set deals with kappa3 receptors. As to conditions: cited from earlier work.
A further data set concerns kappa3 opioid receptor. As to the kind of experiment: Effect of antisense treatment on kappa3 analgesic activity (tailflick assay). The conditions noted are these: mice, 5 μg oligodeoxynucleotide intracerebroventricular on days 1, 3 and 5, quantal tailflick 15 min after drug; for Effect on analgesic response to NalBzoH: NalBzoH 15 μg on day 6; for Effect on analgesic response to morphine: morphine 1 μg on day 6. The data set is classed as in vivo.

“Also recorded” adds a separate entry of the source.

Regarding `Oc1ccc2c3c1O[C@H]1c4[nH]c5c(c4C[C@@]4(O)[C@@H](C2)N(CC2CC2)CC[C@]314)C[C@@]1(O)[C@H]2Cc3ccc(O)c4c3[C@@]1(CCN2CC1CC1)[C@H]5O4` [nor-binaltorphimine], the “Binding to kappa3 receptors” value in the data set with kappa3 receptors was “do not bind U50,488H or nor-binaltorphimine very well”.

As to “antisense: anti-sense to the kappa3 clone (5′-GGGCTGTGCAGAAGCGCAGA-3′)(SEQ ID NO:3) (DNA, backbone and methylation of C not given here)”, in the data set on kappa3 opioid receptor, the “Effect on analgesic response to NalBzoH” value was “markedly lowered; also recorded: markedly reduced” and the “Effect on analgesic response to morphine” value is reported as “without interfering”. For the same molecule, the “Effect on analgesic response to morphine” value in the data set with kappa3 opioid receptor (listed as anti-sense) is on record as “unaffected”.

As for “mismatched antisense: mismatched antisense in which two base pairs had been switched (5′-GGGTCGTGCAGAGACGCAGA-3′) (SEQ ID NO:5) (DNA, backbone and methylation of C not given here)”, the figures for the “Effect on analgesic response to NalBzoH” value in the data set with kappa3 opioid receptor and with kappa3 opioid receptor (listed as mismatched antisense probe) were “unaffected” and “lack of activity”, respectively.

For the molecule “sense strand: complementary sense strand to the antisense oligodeoxynucleotide (5′-CCCGACACGTCTTCGC-GTCT-3′) (SEQ ID NO:4) (sense CCCGACACGTCTTCGCGTCT; DNA, backbone and methylation of C not given here)”, the “Effect on analgesic response to NalBzoH” value in the data set with kappa3 opioid receptor is listed as “lack of activity”; with kappa3 opioid receptor (listed as sense), “unaffected”.
